According to US6762189B1, “5-pyrimidinecarboxamide derivatives and the pharmaceutical compositions containing said derivatives” (Dong Wha Pharm. Ind. Co., Ltd., priority 1999, dated 2004):

Assays:
[1] = molecular target: T1, HBV polymerase (Hepatitis B virus genotype A2 subtype adw2, UniProt P03159); experiment: In vitro reverse transcription activity of HBV polymerase (ELISA-type, DIG/biotin nucleotides); assay type: biochemical; conditions: read-out: Inhibition activity on HBV-RT (%); for inhibition at 0.01 µg/mL: 0.01 μg/ml test compound; for inhibition at 0.1 µg/mL: 0.1 μg/ml test compound; for inhibition at 1 µg/mL: 1 μg/ml test compound
T1 construct: made in house; host or cells: E. coli
T1 sequence (P03159 whole entry): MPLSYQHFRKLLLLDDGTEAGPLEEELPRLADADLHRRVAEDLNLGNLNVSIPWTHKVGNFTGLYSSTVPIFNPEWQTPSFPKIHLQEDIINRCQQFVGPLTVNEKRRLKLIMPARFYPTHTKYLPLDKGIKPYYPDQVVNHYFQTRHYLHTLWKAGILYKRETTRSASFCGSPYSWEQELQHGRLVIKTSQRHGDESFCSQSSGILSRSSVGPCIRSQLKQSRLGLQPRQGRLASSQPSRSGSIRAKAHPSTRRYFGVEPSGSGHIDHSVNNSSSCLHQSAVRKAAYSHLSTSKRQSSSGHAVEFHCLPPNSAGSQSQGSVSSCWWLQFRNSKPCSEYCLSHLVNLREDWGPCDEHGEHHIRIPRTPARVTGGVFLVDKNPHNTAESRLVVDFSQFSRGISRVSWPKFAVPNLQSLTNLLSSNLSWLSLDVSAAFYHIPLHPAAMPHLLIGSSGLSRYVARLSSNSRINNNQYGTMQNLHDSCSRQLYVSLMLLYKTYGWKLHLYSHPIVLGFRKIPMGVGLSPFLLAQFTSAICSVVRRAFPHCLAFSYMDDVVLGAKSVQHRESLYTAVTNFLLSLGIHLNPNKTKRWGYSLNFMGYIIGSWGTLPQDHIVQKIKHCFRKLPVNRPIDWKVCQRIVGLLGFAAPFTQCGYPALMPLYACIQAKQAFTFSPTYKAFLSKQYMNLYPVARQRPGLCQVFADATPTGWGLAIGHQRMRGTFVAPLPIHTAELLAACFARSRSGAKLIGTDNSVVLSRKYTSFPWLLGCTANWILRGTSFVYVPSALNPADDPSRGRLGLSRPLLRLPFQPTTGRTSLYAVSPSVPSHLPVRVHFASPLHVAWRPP
Procedure: The following in vitro experiment was performed to determine the effect of the compounds of formula 1 on the activity of HBV polymerase during reverse transcription.
The present inventors submitted application for a patent concerning HBV polymerase genetically expressed in and separated from E. coli, the process of its preparation, and the method to measure the enzyme activities (KR 94-3918, KR 96-33998). In the present experiments HBV polymerase was used which had been expressed in E. coli as stated above.
The method used in the present invention to measure in vitro reverse transcribing activities of HBV polymerase is as follows. Basic principles are the same as for ELISA. Nucleotides with biotin or digoxigenin group attached are included as substrates and anti-DIG antibodies attached to peroxidase enzyme recognize the polymerized substrates.
To the wells coated with streptavidin, 20 μl of HBV polymerase, 20 μl of reaction mixture (10 μM each of DIG-UTP and Biotin-UTP, 46 mM Tris-HCl, 266 mM KCl, 27.5 mM MgCl2, 9.2 mM DTT substrate/primer hybrid), and 20 μl of test compound (added to 1, 0.1, and 0.01 μg/ml) were added and allowed to react a 22° C. for 15 hrs. During this reaction, HBV polymerase catalyzes DNA synthesis and digoxigenin and biotin attached to nucleotides form bonds with streptavidin coated on the bottom of wells. When the reaction was done, each well was washed with 250μl of cleaning buffer (pH 7.0) for 30 seconds, which was repeated five times to remove remaining impurities. 200 μl of anti-DIG-POD antibody was added to each well and allowed to react for 1 hr at 37° C., and the wells were washed with cleaning buffer to remove impurities. 200μl each of ABTS™, a substrate of peroxidase, was then added and allowed to react at room temperature for 30 min. Absorbance was measured at 405 nm using ELISA reader.
The percentage of reduction in HBV polymerase activities for reverse transcription was calculated using the group without test compound as a control and the results are shown in Table 3.

[2] = system: HBV; experiment: Inhibition of HBV proliferation in HBV producing cell line HepG 2.2.15 (competitive PCR of culture supernatant); assay type: cell-based, Hepatitis B virus; conditions: Hepatitis B virus, HepG2.2.15, 168 h, HepG 2.2.15, one week, read-out: Inhibitory effect on the HBV proliferation, Inhibition activity on HBV-RT (%); for inhibition at 0.01 µg/mL: 0.01 μg/ml; for inhibition at 0.1 µg/mL: 0.1 μg/ml; for inhibition at 1 µg/mL: 1 μg/ml
Procedure: The following experiment was performed to determine inhibitory effects of compounds of formula on the proliferation of HBV producing cell line.
To test for antiviral effect, replication and proliferation of HBV were measured in HepG 2.2.15, a human liver cancer cell line.
The cell concentration was adjusted to 1×10^5 cells/ml and 1 ml was added to each well of a 24-well cell culture plate, which was then kept in a culture box for 3-4 days at 37° C. under 5% CO2 until cells grew sufficiently, changing culture medium everyday. When the cells matured sufficiently, the test compounds were added to the final concentrations of 0.01, 0.1, and 1 μg/ml. One week after the addition of test compounds, he culture solution was centrifuged at 5,000 rpm for 10 min. 25 μl of supernatant was transferred to a new tube and 5 μl of lysis solution [0.54N NaOH, 0.06% NP40] was added to each tube. After keeping the tube at 37° C. for 1 hr, 30 μl . of neutralizing solution [0.09NHCl, 0.1MTris-HCl, pH7.4] was added as a reaction solution for competitive polymerase chain reaction (PCR).
PCR was performed using genetic sequence of HBV core protein as a matrix. PCR reaction was carried out by adding 1 unit of Taq polymerase enzyme to 25 pmol of each primer, 250 μM dNTP, 5 μl of PCR reaction solution [0.54N NaOH, 0.06% NP40, 0.09N HCl, 0.1M Tris-HCl, pH 7.4].
DNA polymerized by PCR was electrophoresed on Agarose gel and quantitatively analyzed using an image analyzer (Gel Dcc 1000, Bio-Rad) in order to evaluate the effect of compounds of the present invention on the reduction of HBV proliferation.
3TC (lamivudine) was used as a positive control at the same concentrations as those of the test compounds. The percentage of reduction in HBV proliferation was calculated using the group without test compound as a control and the results are represented in Table 4.

[3] = molecular target: T2, HIV reverse transcriptase (Human immunodeficiency virus type 1 group M subtype B, UniProt P04585); experiment: In vitro HIV reverse transcriptase activity (non-radioactive reverse transcriptase assay kit); assay type: biochemical; conditions: for Inhibitory effect on the activities of HIV reverse transcriptase, Inhibition activity on HBV-RT (%): 0.1 μg/ml test compound; for Inhibition of HIV reverse transcriptase activity: 1 μg/ml test compound
T2 construct: activities of HIV reverse transcriptase; purchased Boehringer Mannheim
Procedure: The following in vitro experiments were done to determine the effect of compounds of formula 1 on the reduction of HIV enzyme activities in reverse transcription.
Non-radioactive reverse transcriptase assay kit (Boehringer Mannheim) was used in the measurement of in vitro transcriptase activities. 20 μl (40 ng) of HIV transcriptase and 20 μl of reaction mixture containing matrix-primer hybrid poly (A) oligo (dT) 15, DIG(digoxigenin)-dUTP, biotin-dUTP, and TTP were added to wells coated with streptavidin. Test compounds were also added at the final concentrations of 0.1 and 1 μg/ml and allowed to react at 37° C. for 1 hr. At this time, DNA is formed from RNA by the action of HIV transcriptase, forming bonds with streptavidin coated on the bottom of wells because of digoxigenin and biotin moieties attached to nucleotides.
When the reaction was completed, each well was washed with 250 μl. of cleaning buffer (pH 7.0) for 30 sec. five times to remove remaining impurities. 200 μl of anti-DIG-POD […] was added to each well, allowed to react at 37° C. for 1 hr and washed as above to remove impurities. 200 μl of ABTS™, a substrate for peroxidase, was added to each well and allowed to react at room temperature for 30min. Absorbance at 405 nm was then read for each solution using ELISA reader and used for quantitative determination of inhibitory effect on the HIV transcriptase activities. The percentage of reduction in the activities of HIV reverse transcriptase was calculated using the group without test compound as control and the results are represented in Table 5.

[4] = Cytotoxicity test on HepG2 cells (MTT); assay type: cell-based; conditions: human, read-out: Cytotoxity on HepG2, IC50 (50% Inhibitory Concentration)
[5] = system: HepG2 cells; experiment: Cytotoxicity test on HepG2 cells (MTT); assay type: cell-based

| Compound | inhibition at 0.01 µg/mL [1] | inhibition at 0.1 µg/mL [1] | inhibition at 1 µg/mL [1] | inhibition at 0.01 µg/mL [2] | inhibition at 0.1 µg/mL [2] | inhibition at 1 µg/mL [2] | Inhibitory effect on the activities of HIV reverse transcriptase, Inhibition activity on HBV-RT (%) [3] | Inhibition of HIV reverse transcriptase activity [3] | IC50 [4] | Cytotoxity on HepG2, MCD (Minimal Cytotoxic Concentration) [5] | melting point |
| --- | --- | --- | --- | --- | --- | --- | --- | --- | --- | --- | --- |
| CNC(=O)c1cnc(SC)nc1Nc1ccc2cn[nH]c2c1 [Example 4, 4-(1H-6-Indazolylamino)-N-methyl-2-methylthio-5-pyrimidinecarboxamide] | 52% | 77% | 96% | 32% | 70% | 94% | 42% | 70% | > 100 µg/mL | 100 µg/mL | – |
| CSc1ncc(C(=O)N(C)C)c(Nc2ccc3cn[nH]c3c2)n1 [Example 16, N,N-dimethyl-4-(1H-6-indazolylamino)-2-methylthio-5-pyrimidinecarboxamide] | 10% | 30% | 54% | – | – | – | 53% | 81% | – | – | 164 to 166 °C |
| CSc1ncc(C(=O)NCCN2CCOCC2)c(Nc2ccc3[nH]ncc3c2)n1 [Example 19, 4-(1H-5-indazolylamino)-2-methylthio-N-[2-(4-morpholinyl)ethyl]-5-pyrimidinecarboxamide] | 10% | 39% | 64% | – | – | – | 48% | 75% | – | – | 113 to 117 °C |
| CSc1ncc(C(=O)NCCO)c(Nc2ccc3cn[nH]c3c2)n1 [Example 8, N-(2-hydroxyethyl)-4-(1H-6-indazolylamino)-2-methylthio-5-pyrimidine Carboxamide] | 50% | 68% | 95% | 40% | 72% | 88% | – | – | > 100 µg/mL | 100 µg/mL | – |
| CSc1ncc(C(=O)NCCCn2ccnc2)c(Nc2ccc3[nH]ncc3c2)n1 [Example 29, N-[3-(1H-1-imidazolyl)propyl]-4-(1H-5-indazolylamino)-2-methylthio-5-pyrimidinecarboxamide] | 41% | 56% | 80% | – | – | – | 44% | 72% | – | – | 121 to 125 °C |
| CNC(=O)c1cnc(SC)nc1Nc1ccc2[nH]ncc2c1 [Example 3, 4-(1H-5-Indazolylamino)-N-methyl-2-methylthio-5-pyrimidine carboxamide] | 34% | 59% | 88% | 15% | 42% | 75% | 48% | 62% | > 100 µg/mL | 100 µg/mL | – |
| CSc1ncc(C(=O)NCCN(C)C)c(Nc2ccc3cn[nH]c3c2)n1 [Example 18, N-[2-(dimethylamino)ethyl]-4-(1H-6-indazolylamino)-2-methylthio-5-pyrimidinecarboxamide] | 54% | 66% | 92% | 43% | 57% | 88% | 51% | 77% | – | – | 162 to 167 °C |
